Data published in patent publication US20220380378A1 (ESSA Pharma, Inc., priority 2021, published 2022).

Tested on: not listed separately
Test: Microsomal stability assay, liver microsome half-life (human)
Type: in vitro ADME
Conditions: pH 7.4; human liver microsomes 0.5 mg/mL, 1 μM compound, 37° C.; read-out: Liver microsome T1/2 Human
Text: Microsomal Stability Assay: Microsomal stability assay is a widely used in vitro model to characterize the metabolic conversion by phase I enzymes, such as cytochrome P450 (CYP) enzymes. Since metabolism is known to be highly variable in different species, microsomal stability assay is commonly run in multiple species. Metabolic stability of testing compound can be evaluated using human, rat, mouse, or other animal liver or intestine microsomes to predict intrinsic clearance.
The assay was carried out in 96-well microtiter plates at 37° C. Reaction mixtures (25 μL) contained a final concentration of 1 μM test compound, 0.5 mg/mL liver microsomes protein, and 1 mM NADPH and/or 1 mM UDPGA (with alamethicin) in 100 mM potassium phosphate, pH 7.4 buffer with 3 mM MgCl2. The incubation was done with N=1, but duplicate incubation at each time point can be prepared if necessary. At each of the time points (for example, 0, 15, 30, and 60 minutes), 150 μL of quench solution (100% acetonitrile with 0.1% formic acid) with internal standard was transferred to each well. Besides the zero minute controls, mixtures containing the same components except the NADPH can also be prepared as the negative control. Verapamil was included as a positive control to verify assay performance. Plates were sealed, vortexed, and centrifuged at 4° C. for 15 minutes at 4000 rpm. The supernatant is transferred to fresh plates for LC/MS/MS analysis.
Summarized conditions: [Compound]=1 μM, [LM]=0.5 mg/mL, [NADPH]=1 mM and/or [UDPGA]=1 mM, Buffer=100 mM Potassium Phosphate, pH 7.4 with 3 mM MgCl2, Time=0, 15, 30, and 60 min, and Temperature=37° C.
All samples were analyzed on LC/MS/MS using an AB Sciex API 4000 instrument, coupled to a Shimadzu LC-20AD LC Pump system. Analytical samples were separated using a Waters Atlantis T3 dC18 reverse phase HPLC column (20 mm×2.1 mm) at a flow rate of 0.5 mL/min. The mobile phase consisted of 0.1% formic acid in water (solvent A) and 0.1% formic acid in 100% acetonitrile (solvent B).
The extent of metabolism is calculated as the disappearance of the test compound, compared to the 0-min time incubation. Initial rates are calculated for the compound concentration and used to determine half-life (t½). […]

half-life at 1 μM [h]	SMILES
0.161	CS(=O)(=O)Nc1nccc(OCC23CC(C(=O)c4cc(Cl)c(OCCCl)c(C#N)c4)(C2)C3)n1 [Compound A8]
> 2	CC(C)(c1ccc(OC[C@H](O)CNS(C)(=O)=O)cc1)c1cc(Cl)c(OC[C@H](O)CCl)c(Cl)c1 [X, reference compound]
1.4	CS(=O)(=O)Nc1nccc(OCC23CC(C(=O)c4ccc(OCCCl)cc4)(C2)C3)n1 [Compound A7]
> 2	CS(=O)(=O)Nc1nccc(COc2nnc(-c3cc(Cl)c(OCCCl)c(C#N)c3)o2)n1 [Compound A37, N-(4-(((5-(3-chloro-4-(2-chloroethoxy)-5-cyanophenyl)-1,3,4-oxadiazol-2-yl)oxy)methyl)pyrimidin-2-yl)methanesulfonamide]
0.93	CS(=O)(=O)Nc1nccc(COCCc2cc(Cl)c(OCCCl)c(C#N)c2)n1 [Compound A5]
> 2	CC(C)(c1ccc(OCc2ccnc(NS(C)(=O)=O)n2)cc1)c1cc(Cl)c2c(c1)OCCO2 [Compound A38]
> 2	CS(=O)(=O)Nc1nccc(OC2CCN(C(=O)c3cc(Cl)c(OCCCl)c(C#N)c3)CC2)n1 [Compound A6, N-(4-((1-(3-chloro-4-(2-chloroethoxy)-5-cyanobenzoyl)piperidin-4-yl)oxy)pyrimidin-2-yl)methanesulfonamide]

Molecular target: T1, androgen receptor (AR) (Homo sapiens, UniProt P10275, T878A)
T1 sequence (P10275 1-920 T878A): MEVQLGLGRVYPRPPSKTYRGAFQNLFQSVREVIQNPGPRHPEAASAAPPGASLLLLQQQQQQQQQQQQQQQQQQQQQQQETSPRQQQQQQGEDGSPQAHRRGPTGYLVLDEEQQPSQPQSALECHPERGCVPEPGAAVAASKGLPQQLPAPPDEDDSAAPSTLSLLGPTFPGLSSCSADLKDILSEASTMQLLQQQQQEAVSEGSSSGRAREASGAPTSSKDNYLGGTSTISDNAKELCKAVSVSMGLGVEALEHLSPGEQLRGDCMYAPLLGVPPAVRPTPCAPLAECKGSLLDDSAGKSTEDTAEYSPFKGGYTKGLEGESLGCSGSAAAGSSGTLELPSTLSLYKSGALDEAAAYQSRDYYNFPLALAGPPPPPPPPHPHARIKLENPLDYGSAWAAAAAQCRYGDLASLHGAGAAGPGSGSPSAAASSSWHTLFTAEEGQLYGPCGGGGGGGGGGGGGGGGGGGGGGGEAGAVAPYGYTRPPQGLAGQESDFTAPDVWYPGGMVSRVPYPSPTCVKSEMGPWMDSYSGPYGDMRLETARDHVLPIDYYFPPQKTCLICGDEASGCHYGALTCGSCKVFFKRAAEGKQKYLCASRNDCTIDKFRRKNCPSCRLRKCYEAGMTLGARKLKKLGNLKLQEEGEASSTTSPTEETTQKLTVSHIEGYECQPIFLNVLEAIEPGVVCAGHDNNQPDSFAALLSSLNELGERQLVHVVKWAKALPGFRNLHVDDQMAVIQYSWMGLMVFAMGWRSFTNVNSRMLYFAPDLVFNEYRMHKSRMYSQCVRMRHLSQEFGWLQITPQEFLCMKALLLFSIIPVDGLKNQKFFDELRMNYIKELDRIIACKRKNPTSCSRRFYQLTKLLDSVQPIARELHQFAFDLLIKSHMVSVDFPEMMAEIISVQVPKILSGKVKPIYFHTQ
Test: Androgen-induced PSA (6.1 kb)-luciferase reporter assay in LNCaP cells (R1881 1 nM)
Type: cell-based
Parameters: endogenous in cells; host or cells: LNCaP
Conditions: 24 h, read-out: PSA-Luc IC50 Range
Summary of the method: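 Compound or vehicle was added 1 h before 1 nM R1881 to LNCaP cells carrying a transiently transfected (24 h) PSA (6.1 kb)-luciferase reporter. After 24 h androgen exposure, lysate luminescence was normalized to protein and expressed versus vehicle plus R1881 for IC50.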

IC50 [µM]	SMILES
> 2	CS(=O)(=O)Nc1nccc(OCC23CC(C(=O)c4cc(Cl)c(OCCCl)c(C#N)c4)(C2)C3)n1 [Compound A8]
> 2	CS(=O)(=O)Nc1nccc(OCC23CC(C(=O)c4ccc(OCCCl)cc4)(C2)C3)n1 [Compound A7]
0.5 to 2	CS(=O)(=O)Nc1nccc(COc2nnc(-c3cc(Cl)c(OCCCl)c(C#N)c3)o2)n1 [Compound A37, N-(4-(((5-(3-chloro-4-(2-chloroethoxy)-5-cyanophenyl)-1,3,4-oxadiazol-2-yl)oxy)methyl)pyrimidin-2-yl)methanesulfonamide]
> 2	CS(=O)(=O)Nc1nccc(COCCc2cc(Cl)c(OCCCl)c(C#N)c2)n1 [Compound A5]
< 0.5	CC(C)(c1ccc(OCc2ccnc(NS(C)(=O)=O)n2)cc1)c1cc(F)c(N2CC(O)C2)c(C#N)c1 [Compound A259]
> 2	CS(=O)(=O)N1CCC12CN(CCc1ccc3c(ccn3-c3cc(Cl)c(OCCCl)c(C#N)c3)c1)C2 [Compound A249]
0.5 to 2	CS(=O)(=O)Nc1nccc(COc2ccc3c(ccn3-c3cc(C#N)c(OCCCl)c(C(F)(F)F)c3)c2)n1 [Compound A21]
0.5 to 2	CC(C)(c1ccc(OCC23CCC(NS(C)(=O)=O)(C2)C3)cc1)c1cc(Cl)c(OCCCl)c(C#N)c1 [Compound A271]
> 2	CC(C)(c1ccc(OCc2ccnc(NS(C)(=O)=O)n2)cc1)c1cnc(N2CC3(CCC3)C2)c(Cl)c1 [Compound A106]
0.5 to 2	CS(=O)(=O)Nc1nccc(COc2ccc3c(ccn3-c3cc(Cl)c(OC=C(Cl)Cl)c(C#N)c3)c2)n1 [Compound A128]
> 2	CC(C)(c1ccc(-c2cnc3c(c2)C(NS(C)(=O)=O)CCC3)cc1)c1cc(Cl)c(OCCCl)c(C#N)c1 (stereo not shown) [Compound A243]
> 2	CS(=O)(=O)N1CCCC(Oc2ccc3c(ccn3-c3cc(Cl)c(OCCCl)c(C#N)c3)c2)CC1 (stereo not shown) [Compound A202]
0.5 to 2	CC(C)(c1ccc(OCc2ccnc(NS(C)(=O)=O)n2)c(Cl)c1)c1cc(Cl)c(OCCCl)c(C#N)c1 [Compound A102]
> 2	CC(C)(c1ccc(-c2cnc3nc(NS(C)(=O)=O)oc3c2)cc1)c1cc(Cl)c(OCCCl)c(C#N)c1 [Compound A257]
0.5 to 2	Cn1cc(-c2cc(Cl)c(OCCCl)c(C#N)c2)c2ccc(OCc3ccnc(NS(C)(=O)=O)n3)cc21 [Compound A157]
0.5 to 2	CS(=O)(=O)N[C@H]1C[C@H](COc2ccc3c(c2)CCC3c2cc(Cl)c(OCCCl)c(C#N)c2)C1 (stereo partly shown) [Compound A266]
0.5 to 2	CS(=O)(=O)N1CCC(COc2ccc3c(ccn3-c3cc(Cl)c(OCCCl)c(C#N)c3)c2)C1 (stereo not shown) [Compound A210]
0.5 to 2	CC(C)(c1ccc(OCC23CC(C2)N(S(C)(=O)=O)C3)cc1)c1cc(Cl)c(OCCCl)c(C#N)c1 [Compound A285]
0.5 to 2	CS(=O)(=O)N1CC(F)(COc2ccc3c(ccn3-c3cc(Cl)c(OCCCl)c(C#N)c3)c2)C1 [Compound A137]
> 2	CS(=O)(=O)NC12CC(NC(=O)c3ccc4c(ccn4-c4cc(Cl)c(OCCCl)c(C#N)c4)c3)(C1)C2 [Compound A134]
> 2	CC(C)(c1ccc(OCc2ccnc(NS(C)(=O)=O)n2)cc1)c1cc(Cl)c2c(c1)OCCO2 [Compound A38]

IC50 [µM]	SMILES
> 2	CC(C)(c1ccc(-c2ccc3c(NS(C)(=O)=O)ncnc3c2)cc1)c1cc(Cl)c(OCCCl)c(C#N)c1 [Compound A197]
> 2	CS(=O)(=O)Nc1nccc(OC2CCN(C(=O)c3cc(Cl)c(OCCCl)c(C#N)c3)CC2)n1 [Compound A6, N-(4-((1-(3-chloro-4-(2-chloroethoxy)-5-cyanobenzoyl)piperidin-4-yl)oxy)pyrimidin-2-yl)methanesulfonamide]
> 2	CCCOc1ncc(C(C)(C)c2ccc(OCc3ccnc(NS(C)(=O)=O)n3)cc2)cc1Cl [Compound A104]
> 2	CC1(NS(C)(=O)=O)CN(CCc2ccc3c(ccn3-c3cc(Cl)c(OCCCl)c(C#N)c3)c2)C1 [Compound A244]
> 2	CCC(O)COc1c(Cl)cc(C(C)(C)c2ccc(OCc3ccnc(NS(C)(=O)=O)n3)cc2)cc1C#N (stereo not shown) [Compound A174]
> 2	CS(=O)(=O)Nc1nccc(COc2ccc3c(c2)nnn3-c2cc(Cl)c(OCCCl)c(C#N)c2)n1 [Compound A40]
> 2	CS(=O)(=O)NC1CC2(C1)CN(Cc1ccc3c(ccn3-c3cc(Cl)c(OCCCl)c(C#N)c3)c1)C2 [Compound A171]
0.5 to 2	CC1CN(c2c(F)cc(C(C)(C)c3ccc(OCc4ccnc(NS(C)(=O)=O)n4)cc3)cc2C#N)C1 [Compound A252]
0.5 to 2	C[C@H](Oc1ccc(C(C)(C)c2cc(Cl)c(OCCCl)c(C#N)c2)cc1)C12CC(NS(C)(=O)=O)(C1)C2 [Compound A265]
0.5 to 2	COc1c(Cl)cc(C2CCc3cc(-c4ccc5nc(NS(C)(=O)=O)cnc5c4)ccc32)cc1C#N (stereo not shown) [Compound A276]
0.5 to 2	CC(C)(c1ccc(OCC2CN(S(C)(=O)=O)C2)cc1)c1cc(Cl)c(OCCCl)c(C#N)c1 [Compound A151]
> 2	CC(C)(c1ccc(-c2cnc3c(c2)CCCC3NS(C)(=O)=O)cc1)c1cc(Cl)c(OCCCl)c(C#N)c1 (stereo not shown) [Compound A216]
> 2	CS(=O)(=O)Nc1ncc2c(n1)CCN(Cc1ccc3c(ccn3-c3cc(Cl)c(OCCCl)c(C#N)c3)c1)C2 [Compound A154]
> 2	CS(=O)(=O)Nc1nccc(COc2ccc3c(-c4cc(Cl)c(OCCCl)c(C#N)c4)c[nH]c3c2)n1 [Compound A218]
0.5 to 2	Cn1nc(NC(=O)C(F)(F)F)cc1COc1ccc(C(C)(C)c2cc(Cl)c(OCCCl)c(C#N)c2)cc1 [Compound A127]
< 0.5	CC(C)(c1ccc(-c2cnc3c(NS(C)(=O)=O)nccc3c2)cc1)c1cc(Cl)c(OCCCl)c(C#N)c1 [Compound A199]
0.5 to 2	CS(=O)(=O)Nc1nccc(COc2ccc3c(ccn3-c3cc(Cl)c(OCC(F)(F)F)c(C#N)c3)c2)n1 [Compound A70]
0.5 to 2	CS(=O)(=O)N1CCCC(COc2ccc3c(ccn3-c3cc(Cl)c(OCCCl)c(C#N)c3)c2)C1 (stereo not shown) [Compound A56]
> 2	CC(C)(c1ccc(-c2ccc3ncncc3c2)cc1)c1cc(Cl)c(OCCCl)c(C#N)c1 [Compound A110]
< 0.5	CC(=O)Nc1cnc(COc2ccc(C(C)(C)c3cc(Cl)c(OCCCl)c(C#N)c3)cc2)c(NS(C)(=O)=O)n1 [Compound A76]

SMILES	IC50 [µM]
CC(C)(c1ccc(OCc2ccnc(NS(C)(=O)=O)n2)cc1)c1cc(Cl)c(NCCCl)c(C#N)c1 [Compound A66]	0.5 to 2
